In brackets after ≈: the same amount, converted by molar mass. Entries after “also recorded” stand apart in the source; their conditions may differ. Like-named read-outs stand apart in the source and are kept apart here.
How the values were obtained:
[1] = Cytotoxicity on static MRC-5 cells; type: cell-based; conditions: human, Table 4, 50% cell death (static cells), read-out: TC50 Static MRC-5
Method: (§1) Cell Culture. Vero (African Green Monkey kidney cells) and MRC-5 (diploid Human Embryonic Lung fibroblasts) cells were obtained from the American Type Culture Collection (ATCC) and were grown in minimal essential medium (MEM) with Earl's salts and glutamine (GIBCO BRL, Life Technologies, Inc.) with 10% heat inactivated fetal bovine serum (GIBCO BRL) and penicillin (100 μg/mL)/streptomycin (100 μg/mL).
Cytotoxicity Analysis. The cytotoxicity of the compound was assayed using few the CellTiter 96™ Aqueous Non-Radioactive Cell Proliferation (MTS) Assay (Promega). Briefly, viable cell number was determined by trypan blue staining and cells (MRC-5 and Vero) were resuspended in minimal essential medium (MEM) supplemented with 10% FBS (GIBCO). Eighty microliters of cell suspension (1.7×10^4 cells/well) was dispensed onto a 96-well microtiter plates. At this time 20 μL of drug (or control) was added to appropriate wells. Each concentration was assayed in quadruplicate. The plates were incubated at 37° C. in a humidified 5% CO2 atmosphere for 4 days and MTS assay was performed according to the manufacturer's instructions. The average absorbence of the sample was graphed for each concentration and the data obtained was used to calculate TC50 (the concentration necessary to give one-half maximum growth) for each compound.

HCMV (Town strain) = experiment: HCMV plaque reduction (CPE) assay in MRC-5 cells; type: cell-based, human cytomegalovirus
Method: The adenine analog phosphazole (compound T70241) was assayed for antiviral activity using a HCMV plaque reduction assay, in accordance with known methods such as that described in U.S. Pat. No. 5,446,045.
as §1
CMV Cytopathic Effect (CPE) Assay. Assays were performed essentially as described by Lewis et al. (111), which report is incorporated herein by reference. MRC-5 cells (100,000 cells/well) were seeded in 24-well plates overnight. Medium was then removed and wells were rinsed once with 250 μL of 2% FCS-MEM before adding 40-50 pfu of HCMV (Town strain) to each well. After 2 hours of virus adsorption, the medium was removed and the cells were rinsed once with 2% FCS-MEM. Varying concentrations of the phosphazole compound in the culture medium (1 mL) was then added to appropriate wells and plates were incubated for 5-6 days at 37° C. in a humidified 5% CO2 atmosphere. Each concentration was tested in duplicate wells.
The extent of the plaque reduction was quantitated by removing the media and adding 200 μL of 0.1% crystal violet in 20% methanol to all wells. The crystal violet was then removed after 10 min staining at room temperature by rinsing in the sink with tap water and the plates dried overnight. The plaques were then counted using a Nikon inverted microscope.

[2] = Cytotoxicity on growing THP-1 cells (MTS assay); type: cell-based, human; conditions: human, thp-1 cells; Table 2; drug dose required to inhibit logphase growing cells by 50%; read-out: TC50 Growing THP-1
Method: Cytotoxicity Analysis. The cytotoxicity of the compounds were assayed using the CellTiter 96™ Aqueous Non-Radioactive Cell Proliferation (MTS) Assay kit obtained from Promega (Madison, Wis.) following the instructions provided by the supplier. The viable cell number was determined by trypan blue staining and cells (THP-1) were resuspended in PRMI supplemented with 10% FBS (GIBCO). Eighty microliters of cell suspension (1.7×10^4cells/well) was dispensed onto a 96-well microtiter plates. At this time 20 μL of drug (or control) was added to appropriate wells. Each concentration was assayed in quadruplicate. The plates were incubated at 37° C. in a humidified 5% CO2 atmosphere for 4 days and MTS assay […] for each concentration and the data obtained was used to calculate TC50 (the concentration of the compound necessary to inhibit the cell growth by 50%) for each compound.

TNFα = experiment: Inhibition of TNFα production in LPS-stimulated THP-1 cells (ELISA); type: cell-based, human; conditions: for inhibition at 10 µg/mL / inhibition at 100 µg/mL / IC50: Homo sapiens; for inhibition at 10 µg/mL: 10 μg/mL; for inhibition at 10 µg/mL / inhibition at 100 µg/mL: THP-1, 6 h post-stimulation (FIG. 2), read-out: percent inhibition of TNFα production; for inhibition at 100 µg/mL: 100 μg/mL; for IC50: Table 2, LPS-stimulated THP-1, 6 h post-stimulation
Method: Cell line. THP-1 cells (human monocyte) were maintained in RPMI 1640 medium containing 25 mM Hepes buffer, 2 mM L-glutamine, 50 units of penicillin per mL, 50 μg of streptomycin sulfate per mL, and 10% heat-inactivated fetal bovine serum (FBS) in a humidified incubator containing 5% CO2. The cells were split 1:4 weekly as recommended by the American Type Culture Collection (ATCC).
TNFα assay. Varying concentrations of the test compound or control compound were added to THP-1 cells plated at a density of 1×10^6cells/mL in 600 μL of 10% RPMI in a 48 well plate. After one hour the cells were stimulated with 0.5 μg of lipopolysaccharide (LPS; Sigma, lot number 43H40491) per mL. Six hours post-stimulation supernatants were collected and assayed for TNFα or IL-1β production using a commercially available cytokine detection ELISA (Enzyme Linked Immunosorbent Assay) kit according to the suppliers instructions. A suitable assay kit may be obtained from Biosource, or R and D systems. A novel xanthine analog, HWA-3138, having the structure (as shown below) was used as the control compound (30) in this study to monitor the response of the THP-l cells. Xanthine analogs are known inhibitors of TNFα but not IL-1β. In the following experiments compound HWA-3138 was used as a positive control. [drawing 58]
Time of Addition. Varying concentrations of test or control compounds were added to THP-1 cells (1×10^6 cells/mL) at different time points post-stimulation using 0.5 μg of LPS (Sigma, lot number 43H40491) per mL in 300 μL of 10% RPMI in a 48 well plate. Six hours post-stimulationsupernatants were collected and assayed for TNFα or IL-1β production using a Biosource cytokine detection ELISA (Enzyme Linked Immunosorbent Assay) kit according to the supplier's instructions.
The membrane bound TNFα was separated from the free TNFα in the culture medium at 6 hours post-LPS stimulation as follows: The corresponding cells were centrifuged at 3500 rpm (~1,000×g) for 6 min. The supernatants were removed and the cell pellets were then resuspended in 200 μL of 0.25 mM Tris-HCl (pH 7.4). The cell associated TNFα was prepared by freezing the cell suspension in dry ice/ethanol and thawing at 37° C. three times with Vortexing in-between freeze-thaw cycles. Each cycle was 4-5 min apart.
To determine the long-term effects of phosphazole compound T70241 on TNFα production after a single treatment, THP-1 cells were pre-incubated with T70241, washed and resuspended in drug free medium. The xanthine analog HWA-3138 was used as a control.

[3] = lowest concentration tested, 6 h post-LPS (FIG. 4)

For `Nc1ncnc2pc[nH]c12` (stereo not drawn) [T70241, 7-amino-1H-1,3-azaphospholo[4,5-d]pyrimidine], the CC50 at 96 h [1] was > 50 µg/mL, the “inhibition of HCMV virus production” value (HCMV (Town strain); 0.01-10 μg/mL) was “nearly logrithmic increase in inhibition of virus production” and the IC50 (HCMV (Town strain); Human betaherpesvirus 5, MRC5, read-out: 50% inhibitory concentration (IC50), HCMV induced plaques) was ~8.25 µg/mL (≈ 54.2 µM). For the same compound, the IC50 (HCMV (Town strain); Human betaherpesvirus 5, MRC5, Table 4, read-out: IC50 HCMV) was 8.08 µg/mL (≈ 53.1 µM), the CC50 at 96 h [2] was > 1000 µg/mL and the “levels of cell associated and free TNFα” value (TNFα; 6 hours post-LPS (FIG. 4)) was “able to reduce the levels of both cell associated and free TNFα”. The inhibition at 10 µg/mL (TNFα) was ~25%, the inhibition at 100 µg/mL (TNFα) was ~90% and the IC50 (TNFα) was 23.9 µg/mL (≈ 157 µM). The “TNFα level on late addition” value (TNFα; compound added 5 hours post-LPS, read at 6 h (FIG. 3)) was “significantly reduce the level of TNFα in the culture medium; also recorded: sharply inhibit the amount of cytokine in the culture”, the “inhibition of TNFα production compared to control HWA-3138” value (TNFα; concentrations as little as 10 μg/mL (FIG. 2)) was “inhibits TNFα production in these cells better than the control xanthine compound” and the “reduction of extracellular TNFα” value (TNFα; [3]) was “about 50%”. The “reduction of membrane-bound (intracellular) TNFα” value (TNFα; [3]) was ~30% and the “long-term inhibition of TNFα production after a single treatment” value (TNFα; pre-incubated, washed, drug free medium (FIG. 5)) was “in a dose dependent fashion for 72 hours after the drug removal”.
In the case of `CCCCCn1cpc2ncnc(N)c21` (stereo not drawn) [T70254, 7-Amino-1-(n-pentyl)-1,3-azaphospholo[4,5-d]pyrimidine], the CC50 at 96 h [1] is reported as 9.25 µg/mL (≈ 41.6 µM), the IC50 (HCMV (Town strain); Human betaherpesvirus 5, MRC5, read-out: IC50 HCMV) is reported as > 50 µg/mL and the CC50 at 96 h [2] is reported as 14.7 µg/mL (≈ 66.2 µM). The “inhibition of TNFα production by T70254” value (TNFα; 6 hours, LPS (FIG. 2)) was “significantly inhibits TNFα production in THP-1 cells”, the inhibition at 10 µg/mL (TNFα) was ~30% and the inhibition at 100 µg/mL (TNFα) was ~55%. It also gave an IC50 (TNFα) of 19.4 µg/mL (≈ 87.3 µM).

Reference: patent US6069132A, “Phosphazole compounds” (priority 1997, dated 2000)
